Test results reported in patent publication US20260206757A1, “METHODS OF CONTROLLING UNDESIRABLE PLANTS WITH PPO HERBICIDES AND COMBINATIONS IN HERBICIDE TOLERANT CROP PLANTS” (BASF AGRO B.V., priority 2022, published 2026).

How the values were obtained:
sunflower = details: applied to sunflower with at least two true leaves; cited from earlier work
HELAN Pacino = assay: Greenhouse experiment, crop safety of sunflower; assay type: in vivo, Helianthus annuus; details: scale 0 to 100%
Procedure: (§1) For the post emergence treatment, the plants were first grown to the 2 to 4 leaf stage (GS 12/14). The plants were cultivated due to their individual requirements at 10-25° C. and 20-35° C. The plants were irrigated as required.
(§2) Here, the herbicidal compositions were suspended or emulsified in water as distribution medium and sprayed using finely distributing nozzles. 1% methylated seed oil (MSO) has been added as adjuvant to each of the solo and mixture treatments.
(§3) In the greenhouse experiments, the herbicidal activity for the individual herbicidal compositions (solo and mixture applications) was assessed 20/21 days after treatment (DAT).
(§4) The evaluation for the damage on undesired weeds caused by the chemical compositions was carried out using a scale from 0 to 100%, compared to the untreated control plants. Here, 0 means no damage and 100 means complete destruction of the plants.

Portulaca oleracea = assay: Greenhouse experiment, post emergence herbicidal activity; assay type: in vivo; details: POROL, BBCH 12-14, Flumioxazin 4, Bifenox 168 g ai/ha
Procedure: as §1, §2, §3, §4

Solanum nigrum = assay: as above; assay type: in vivo; details: SOLNI, BBCH 12-14, Flumioxazin 1, Fomesafen 123 g ai/ha
Procedure: as §1, §2, §3, §4

HELAN w F(383)I = assay: Greenhouse experiment, crop safety of PPO inhibitor tolerant sunflower; assay type: in vivo, Helianthus annuus; details: scale 0 to 100%
Procedure: as §1, §2, §3, §4

Amaranthus retroflexus = assay: Field experiment, post-emergence herbicidal activity; assay type: in vivo; details: AMARE, postemergence
Procedure: (§5) Trial Objective: Saflufenacil in tank mix with Pendimethalin efficacy on weeds and grasses in early post-emergence of the weeds
(§6) On field test sites, natural weed infestation was treated, pre-emergence of the weeds on bare soil or post-emergence of the weeds.
(§7) For the post emergence treatment, the weedy plants were treated between the 2-4 true leaf stage (GS12-14) and the 6 true leaf stage (GS 16). The herbicidal compositions were suspended or emulsified in water as distribution medium and sprayed with commercial flat fan nozzles using between 100 and 200 l/ha water.
as §4, with “In the following experiments, the herbicidal activity for the individual herbicidal compositions (solo and mixture applications) was assessed up to 36 days after treatment (DAT). The” for “The”, “assessments” for “evaluation”
(§8) [formula] • where X=effect in percent using herbicide (A) at an application rate a; • Y=effect in percent using herbicide (B) at an application rate b; • E=expected effect (in %) of herbicide (A)+herbicide (B) at application rates a+b.
(§9) The value E corresponds to the effect (plant damage or injury) which is to be expected if the activity of the individual compounds is additive. If the observed effect is higher than the value E calculated according to the Colby equation, a synergistic effect is present.

Echinochloa crus-galli = assay: as above; assay type: in vivo; details: ECHCG, postemergence
Procedure: as §5, §6, §7
as §4, with “In the following experiments, the herbicidal activity for the individual herbicidal compositions (solo and mixture applications) was assessed up to 36 days after treatment (DAT). The” for “The”, “assessments” for “evaluation”
as §8, §9

Mercuralis annua = assay: as above; assay type: in vivo; details: MERAN, postemergence, Saflufenacil 12.5, Pendimethalin 1365 g ai/ha
Procedure: as §5, §6, §7
as §4, with “In the following experiments, the herbicidal activity for the individual herbicidal compositions (solo and mixture applications) was assessed up to 36 days after treatment (DAT). The” for “The”, “assessments” for “evaluation”
as §8, §9

[1] = BBCH 12-14, Flumioxazin 0.5, Bifenox 168 g ai/ha
[2] = BBCH 12-14, Flumioxazin 0.5, Halauxifen 1 g ai/ha
[3] = Saflufenacil 12.5, Pendimethalin 1064 g ai/ha

| SMILES | crop injury (sunflower) | Observed crop damage 21 days after treatment (HELAN Pacino; [1]) [%] | Observed crop damage 21 days after treatment (HELAN Pacino; [2]) [%] | % Herbicidal activity (Portulaca oleracea) [%] | % Herbicidal activity (Solanum nigrum) [%] | Observed crop damage 21 days after treatment (HELAN w F(383)I; [1]) [%] | Observed crop damage 21 days after treatment (HELAN w F(383)I; [2]) [%] | % Herbicidal activity (Amaranthus retroflexus; Saflufenacil 12.5, Pendimethalin 840 g ai/ha) [%] | % Herbicidal activity (Amaranthus retroflexus; [3]) [%] | % Herbicidal activity (Echinochloa crus-galli; [3]) [%] | % Herbicidal activity (Echinochloa crus-galli; Saflufenacil 12.5, Pendimethalin 1365 g ai/ha) [%] | % Herbicidal activity (Echinochloa crus-galli; Saflufenacil 50, Pendimethalin 1064 g ai/ha) [%] | % Herbicidal activity (Mercuralis annua) [%] |
| --- | --- | --- | --- | --- | --- | --- | --- | --- | --- | --- | --- | --- | --- |
| C#CCN1C(=O)COc2cc(F)c(N3C(=O)C4=C(CCCC4)C3=O)cc21 [Flumioxazin, 2-[7-fluoro-3,4-dihydro-3-oxo-4-(2-propyn-1-yl)-2H-1,4-benzoxazin-6-yl]-4,5,6,7-tetrahydro-1H-isoindole-1,3 (2H)-dione] | without high level of crop injury | 65 | 65 | 98 | 90 | 15 | 15 | – | – | – | – | – | – |
| CC(C)N(C)S(=O)(=O)NC(=O)c1cc(-n2c(=O)cc(C(F)(F)F)n(C)c2=O)c(F)cc1Cl [Saflufenacil, 2-chloro-5-[3,6-dihydro-3-methyl-2,6-dioxo-4-(trifluoromethyl)-1-(2H)pyrimidinyl]-4-fluoro-N-[[methyl (1-methylethyl)amino]-sulfonyl]benzamide] | – | – | – | – | – | – | – | 35 | 60 | 0 | 5 | 0 | 0 |
